Data published in ChEMBL document CHEMBL1201862, “PubChem BioAssay data set” (2004).
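Tested at 5 concentrations; 48 h exposure; 96-well plates; endpoints linearly interpolated, else capped at highest concentration. The concentration for 50% growth inhibition is given as GI50.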 Calls of active or inactive are those of the source. No stated cut-off is given here; in the data, active = GI50 up to about 1.1 µM and inactive = higher.

Experiments:
Experiment in all cases: NCI tumour cell line growth inhibition, 48 h
[1] = test system: 786-0
[2] = test system: A498
[3] = test system: A549
[4] = test system: ACHN
[5] = test system: CAKI-1
[6] = test system: CCRF-CEM
[7] = test system: COLO 205
[8] = test system: DLD-1
[9] = test system: DMS-114
[10] = test system: DMS-273
[11] = test system: EKVX
[12] = test system: HCC 2998
[13] = test system: HCT-116
[14] = test system: HCT-15
[15] = test system: HL-60
[16] = test system: HOP-18
[17] = test system: HOP-62
[18] = test system: HOP-92
[19] = test system: HT-29
[20] = test system: IGROV-1
[21] = test system: K562
[22] = test system: KM-20L2
[23] = test system: KM12
[24] = test system: LOX IMVI
[25] = test system: LXFL 529
[26] = test system: M14
[27] = test system: M19-MEL
[28] = test system: MOLT-4
[29] = test system: NCI-H226
[30] = test system: NCI-H23
[31] = test system: NCI-H460
[32] = test system: NCI-H522
[33] = test system: OVCAR-4
[34] = test system: OVCAR-5
[35] = test system: OVCAR-8
[36] = test system: RPMI-8226
[37] = test system: RXF 393
[38] = test system: SF-268
[39] = test system: SF-295
[40] = test system: SF-539
[41] = test system: SK-MEL-28
[42] = test system: SK-MEL-2
[43] = test system: SK-MEL-5
[44] = test system: SK-OV-3
[45] = test system: SN12C
[46] = test system: SNB-19
[47] = test system: SNB-75
[48] = test system: SNB-78
[49] = test system: SR
[50] = test system: SW-620
[51] = test system: TK-10
[52] = test system: U-251
[53] = test system: UACC-257
[54] = test system: UACC-62
[55] = test system: UO-31
[56] = test system: Malme-3M
[57] = test system: OVCAR-3
[58] = test system: XF498

With CCN(CC)CCC(=O)Nc1ccc2c(c1)C(=O)c1ccc(NC(=O)CCN(CC)CC)cc1C2=O the GI50 [1] was 2.15 µM (inactive), the GI50 [2] was 5.79 µM (inactive) and the GI50 [3] was 5.18 µM (inactive). For the same compound, the GI50 [4] was 4.07 µM (inactive), the GI50 [5] was 4.43 µM (inactive) and the GI50 [6] was 3.55 µM (inactive). For the same compound, the GI50 [7] was 3.28 µM (inactive), the GI50 [8] was 1.81 µM (inactive) and the GI50 [9] was 3.21 µM (inactive). For the same compound, the GI50 [10] was 1.19 µM (inactive), the GI50 [11] was 3.25 µM (inactive) and the GI50 [12] was > 100 µM (inactive). The GI50 [13] was 2.19 µM (inactive), the GI50 [14] was 2.97 µM and the GI50 [15] was 4.23 µM (inactive). For the same compound, the GI50 [16] was 0.475 µM (active), the GI50 [17] was 5.37 µM (inactive) and the GI50 [18] was 12.8 µM (inactive). The GI50 [19] was 2.59 µM (inactive), the GI50 [20] was 4.06 µM (inactive) and the GI50 [21] was 3.29 µM (inactive). For the same compound, the GI50 [22] was 14.6 µM (inactive), the GI50 [23] was 1.81 µM (inactive) and the GI50 [24] was 2.19 µM (inactive). For the same compound, the GI50 [25] was 3.11 µM (inactive), the GI50 [26] was 13.8 µM (inactive) and the GI50 [27] was > 100 µM (inactive). For the same compound, the GI50 [28] was 2.07 µM (inactive), the GI50 [29] was 0.308 µM (active) and the GI50 [30] was 8.2 µM (inactive). The GI50 [31] was 1.38 µM (inactive), the GI50 [32] was 11.2 µM (inactive) and the GI50 [33] was 4.63 µM (inactive). For the same compound, the GI50 [34] was 11.2 µM (inactive), the GI50 [35] was 4.16 µM (inactive) and the GI50 [36] was 4.17 µM (inactive). The GI50 [37] was 2.11 µM (inactive), the GI50 [38] was 5.62 µM (inactive) and the GI50 [39] was 11.3 µM (inactive). The GI50 [40] was 3.51 µM (inactive), the GI50 [41] was 12.2 µM (inactive) and the GI50 [42] was 4.79 µM (inactive). For the same compound, the GI50 [43] was 7.08 µM (inactive), the GI50 [44] was 9.73 µM (inactive) and the GI50 [45] was 2.84 µM (inactive). The GI50 [46] was 5.48 µM (inactive), the GI50 [47] was 14.2 µM (inactive) and the GI50 [48] was 5.96 µM (inactive). For the same compound, the GI50 [49] was 3.37 µM (inactive), the GI50 [50] was 2.24 µM (inactive) and the GI50 [51] was 5.01 µM (inactive). For the same compound, the GI50 [52] was 9.18 µM (inactive), the GI50 [53] was 14.8 µM (inactive) and the GI50 [54] was 10.4 µM (inactive). For the same compound, the GI50 [55] was 84.1 µM (inactive).

For Cc1cccc(C)c1NC(=O)CCC(=O)NNC(=O)c1cc(O)c2ccccc2c1, the GI50 [1] was 38 µM (inactive), the GI50 [2] was 0.344 µM (active) and the GI50 [3] was 64.7 µM (inactive). The GI50 [4] was 37.2 µM (inactive), the GI50 [5] was 31.8 µM (inactive) and the GI50 [6] was 12.2 µM (inactive). The GI50 [7] was 18.7 µM (inactive), the GI50 [8] was 34.9 µM (inactive) and the GI50 [9] was 21.8 µM (inactive). For the same compound, the GI50 [11] was 42.3 µM (inactive), the GI50 [12] was 51.9 µM (inactive) and the GI50 [13] was 31.9 µM (inactive). The GI50 [14] was 25.3 µM, the GI50 [15] was 27.8 µM (inactive) and the GI50 [16] was 11.6 µM (inactive). The GI50 [17] was 37.9 µM (inactive), the GI50 [18] was > 100 µM (inactive) and the GI50 [19] was 58.3 µM (inactive). The GI50 [20] was 30.4 µM (inactive), the GI50 [21] was 23 µM (inactive) and the GI50 [22] was 34.4 µM (inactive). The GI50 [23] was 99.1 µM (inactive), the GI50 [24] was 25.1 µM (inactive) and the GI50 [25] was 29.6 µM (inactive). For the same compound, the GI50 [26] was 31.4 µM (inactive), the GI50 [27] was 35.2 µM (inactive) and the GI50 [28] was 19.5 µM (inactive). For the same compound, the GI50 [56] was 72.1 µM (inactive), the GI50 [29] was > 100 µM (inactive) and the GI50 [30] was 26.3 µM (inactive). For the same compound, the GI50 [31] was 27.6 µM (inactive), the GI50 [32] was 26.3 µM (inactive) and the GI50 [57] was 24.8 µM (inactive). The GI50 [34] was 32.7 µM (inactive), the GI50 [35] was 20.7 µM (inactive) and the GI50 [36] was 56.8 µM (inactive). For the same compound, the GI50 [37] was 5.35 µM (inactive), the GI50 [38] was 27.6 µM (inactive) and the GI50 [39] was 24 µM (inactive). For the same compound, the GI50 [40] was 27.9 µM (inactive), the GI50 [41] was 44.8 µM (inactive) and the GI50 [43] was 32.3 µM (inactive). The GI50 [44] was 97.9 µM (inactive), the GI50 [45] was 78.7 µM (inactive) and the GI50 [46] was 23.9 µM (inactive). For the same compound, the GI50 [47] was > 100 µM (inactive), the GI50 [49] was 28.2 µM (inactive) and the GI50 [50] was 40 µM (inactive). For the same compound, the GI50 [51] was 70.1 µM (inactive), the GI50 [52] was 48.8 µM (inactive) and the GI50 [53] was 44.5 µM (inactive). The GI50 [54] was 25.6 µM (inactive), the GI50 [55] was 32.1 µM (inactive) and the GI50 [58] was 50.6 µM (inactive).
